Data as given in patent US20080194637A1, “Small organic molecule regulators of cell proliferation” (Curis, Inc., priority 2006, published 2008).
Structures can show the parent of a compound that is named as a salt. Where two headings read alike, the source gives them in different places.

Key:
[1] = tested on: C57BL/6 male mice with DHT pellet; assay: DHT-induced alopecia mouse model of male pattern baldness; type: in vivo; settings: C57BL/6 male mice with subcutaneous DHT pellet (2.5 mg 21 day), dosed topically once, visually graded for hair regrowth
Protocol: (§1) A mouse model of male pattern baldness is used to investigate the effectiveness of the present compounds for growing hair. Agonists for the sonic hedgehog pathway that act by binding and activating Smoothened were tested in a formulation of 50:30:20 PG:EtOH:water or 5:95 DMSO:acetone vehicle. C57BL/6 male mice (48-52 days old on arrival) from Charles River Labs were used on the study. The mice were housed and cared for according to established procedures. Food and water were ad libitum. On Day 0, the mice were shaved on their lower back, an area of ˜1.5 inches×˜2 inches with Wahl clippers using a surgical blade. On day −3, the mice were anesthetized with isoflurane, their back was rinsed with a pad of 70% ethanol, a placebo pellet or a DHT pellet (2.5 mg 21 day pellet) were implanted subcutaneously between the shoulder blades with a 10 gauge trochar. DHT pellet transplantation results in maintenance of existing hair follicles in the resting (telogen) phase. The hole was stapled with a sterile autoclip and the mice were returned to their cage after awaking. The mice were dosed topically once and visually graded daily, except weekends, for melanogenesis and hair regrowth of fur in the dosed area (Table 4).
In the absence of treatment with the present compounds, the follicles remain in telogen rather than following the normal time course of the mouse hair cycle.

C57BL/6 male mice = assay: C57BL/6 hair growth after single topical dose; type: in vivo, mouse; settings: shaved lower back, dosed topically once, visually graded for melanogenesis and hair regrowth
Protocol: as §1

[2] = tested on: sonic hedgehog pathway, TM3 mouse Leydig cells; assay: Hedgehog pathway Gli-luciferase reporter assay in TM3 cells; type: cell-based; settings: Table 1
Description: (§2) Mouse (TM3: mouse Leydig cells; S12: mouse embryonic mesenchymal cells) and human (Daoy: human medulloblastoma cell; HepM: human embryonic palatal mesenchymal cell) cell lines are used to screen small molecules for their ability to modulate the activity of the sonic hedgehog pathway (Table 1, Table 2, and Table 3). Stable hedgehog pathway reporter cell lines are established by specific antibiotic selection following transfection of a reporter plasmid containing a luciferase gene located directly downstream from the gli promoter. Consequently, any observable changes in cellular luciferase activity may be attributed to changes in sonic hedgehog pathway activity in mouse and human cells, respectively, since gli is the major by-product of this pathway. To calculate activity, we generate an eleven point dose curve for each compound using 1:3 dilutions in 96 well assay plates. Each plate tested also contains low and high control to establish maximal pathway activation so to establish/compare a percentage activation of each tested compound (AMAX) on respective plates. Also we calculate EC50 values, or a concentration where the pathway will be exactly 50% activated, for each tested compound to determine potency. In these cell lines, compounds that register >20% AMAX values are considered active.
(§3) Stable hedgehog pathway reporter cell lines are established following specific antibiotic selection following transfection of a reporter plasmid In short, typically cells are plated in MicroTiter-plates at 10,000-20,000 cells per well, in growth media (containing 10%-20% FBS). After 48-72 hrs (HGL and DGL respectively) the media in the assay plates is switched to low-serum containing media (0.5% FBS). At that time compounds are added (at 1-5 μM) to the assay plates, in the presence or absence of hedgehog protein (octyl-modified version; 1-5 ng/ml). After another 24 hrs of incubation, the media from the assay plates is discarded and replaced with luciferase assay-mix. Subsequently, plates are incubated at RT for ˜15-30 mins and then read in a luminometer. [note: addition of the Hedgehog protein, although not critical, will sensitize the assay allowing the identification of weak actives].

[3] = tested on: sonic hedgehog pathway, HepM human embryonic palatal mesenchymal cells; assay: Human hedgehog reporter assay HEPM-GliLuc (HGL); type: cell-based; settings: HepM human embryonic palatal mesenchymal cells, gli-luciferase reporter, Table 1
Description: as §2, §3

[4] = tested on: sonic hedgehog pathway, S12 mouse embryonic mesenchymal cells; assay: Hedgehog pathway Gli-luciferase reporter assay in S12 cells; type: cell-based
Description: as §2, §3

[5] = tested on: sonic hedgehog pathway, Daoy human medulloblastoma cells; assay: Human hedgehog reporter assay Daoy-GliLuc (DGL); type: cell-based
Description: as §2, §3

[6] = S12 mouse embryonic mesenchymal cells, Table 1, read-out: S12 Avg. EC50
[7] = Daoy human medulloblastoma cells, gli-luciferase reporter, Table 1, read-out: Daoy Avg. EC50
[8] = S12 mouse cells, Table 2, read-out: Mouse S12 Avg. EC50
[9] = Daoy human cells, Gli-Luc, Table 2, read-out: Human Daoy (Gli-Luc) Avg. EC50

Row | SMILES | Androgenetic Alopecia [1] | C57BL/6 Hair Growth (C57BL/6 male mice) | other results
1 | CN[C@H]1CC[C@H](N(Cc2cc(-c3ccccc3)ccc2OC)C(=O)c2sc3ccccc3c2Cl)CC1 | yes | yes | –
2 | CN[C@H]1CC[C@H](N(Cc2cc(-c3cc(C)nc(C)c3)ccc2OC)C(=O)c2sc3ccccc3c2Cl)CC1 | yes | yes | –
3 | CN[C@H]1CC[C@H](N(Cc2cc(-c3ccc(C(N)=O)cc3)ccc2OC)C(=O)c2sc3c(F)ccc(F)c3c2Cl)CC1 | yes | yes | –
4 | CN[C@H]1CC[C@H](N(Cc2cc(-c3ccnc(C)c3)ccc2OC)C(=O)c2sc3ccccc3c2Cl)CC1 | yes | yes | –
5 | CN[C@H]1CC[C@H](N(Cc2cc(-c3ccc(N)nc3)ccc2OC)C(=O)c2sc3cccc(F)c3c2Cl)CC1 | yes | yes | –
6 | CN[C@H]1CC[C@H](N(Cc2cc(-c3ccc(S(C)(=O)=O)cc3)ccc2OC)C(=O)c2sc3ccccc3c2Cl)CC1 | yes | yes | –
7 | CN[C@H]1CC[C@H](N(Cc2cc(-c3ccnc(C(=O)N(C)C)c3)ccc2OC)C(=O)c2sc3c(F)ccc(F)c3c2Cl)CC1 | yes | yes | –
8 | CNC1CCC(N(Cc2cc(-c3ccncc3)ccc2OC)C(=O)c2sc3ccccc3c2Cl)CC1 (centres unmarked) | yes | yes | –
9 | CN[C@H]1CC[C@H](N(Cc2cc(-c3ccc(NS(C)(=O)=O)nc3)ccc2OC)C(=O)c2sc3c(F)ccc(F)c3c2Cl)CC1 | – | yes | –
10 | CCOc1ccc(-c2ccc(C#N)cc2)cc1CN(C(=O)c1sc2ccccc2c1Cl)[C@H]1CC[C@H](NC)CC1 | – | yes | –
11 | CN[C@H]1CC[C@H](N(Cc2cc(-c3ccnc(C(=O)OC)c3)ccc2OC)C(=O)c2sc3c(F)ccc(F)c3c2Cl)CC1 | yes | yes | –
12 | CN[C@H]1CC[C@H](N(Cc2cc(-c3ccnc(C(=O)O)c3)ccc2OC)C(=O)c2sc3c(F)ccc(F)c3c2Cl)CC1 | – | no | –
13 | CN[C@H]1CC[C@@H](N(Cc2cc(-c3cccnc3)ccc2OC)C(=O)c2sc3cccc(F)c3c2Cl)CC1 [360 (R16), 3-Chloro-4-fluoro-benzo[b]thiophene-2-carboxylic acid (2-methoxy-5-pyridin-3-yl-benzyl)-(4-methylamino-cyclohexyl)-amide dihydrochloride] | – | – | EC50 [2]: < 50 nM; EC50 [3]: < 50 nM; EC50 [4, 6]: < 50 nM; EC50 [5, 7]: < 50 nM
14 | CN[C@H]1CC[C@@H](N(Cc2cc(-c3ccc(C(C)=O)cc3)ccc2OC)C(=O)c2sc3ccccc3c2Cl)CC1 [Compound 303, 3-Chloro-benzo[b]thiophene-2-carboxylic acid (4′-acetyl-4-methoxy-biphenyl-3-ylmethyl)-(4-methylamino-cyclohexyl)-amide hydrochloride] | – | – | EC50 [2]: < 50 nM; EC50 [3]: < 50 nM; EC50 [4, 6]: < 50 nM; EC50 [5, 7]: < 50 nM
15 | CN[C@H]1CC[C@@H](N(Cc2cc(-c3cccc(SC)c3)ccc2OC)C(=O)c2sc3c(F)ccc(F)c3c2Cl)CC1 [Compound 372, 3-Chloro-4,7-difluoro-benzo[b]thiophene-2-carboxylic acid (4-methoxy-3′-methylsulfanyl-biphenyl-3-ylmethyl)-(4-methylamino-cyclohexyl)-amide hydrochloride] | – | – | EC50 [4, 8]: < 50 nM; EC50 [5, 9]: < 50 nM
16 | CN[C@H]1CC[C@@H](N(Cc2cc(-c3ccc(SC)cc3)ccc2OC)C(=O)c2sc3c(F)ccc(F)c3c2Cl)CC1 [Compound 373, 3-Chloro-4,7-difluoro-benzo[b]thiophene-2-carboxylic acid (4-methoxy-4′-methylsulfanyl-biphenyl-3-ylmethyl)-(4-methylamino-cyclohexyl)-amide hydrochloride] | – | – | EC50 [4, 8]: < 50 nM; EC50 [5, 9]: < 50 nM
17 | CN[C@H]1CC[C@@H](N(Cc2cc(-c3cc[n+]([O-])cc3)ccc2OC)C(=O)c2sc3c(F)ccc(F)c3c2Cl)CC1 [Compound 374, 4-(3-((3-chloro-4,7-difluoro-N-((1s,4s)-4-(methylamino)cyclohexyl)benzo[b]thiophene-2-carboxamido)methyl)-4-methoxyphenyl)pyridine 1-oxide] | – | – | EC50 [4, 8]: < 50 nM; EC50 [5, 9]: < 50 nM
18 | CN[C@H]1CC[C@@H](N(Cc2cc(-c3cccc([S+](C)[O-])c3)ccc2OC)C(=O)c2sc3c(F)ccc(F)c3c2Cl)CC1 (some centres unmarked) [Compound 376, 3-Chloro-4,7-difluoro-benzo[b]thiophene-2-carboxylic acid (3′-methanesulfinyl-4-methoxy-biphenyl-3-ylmethyl)-(4-methylamino-cyclohexyl)-amide trifluoroacetate] | – | – | EC50 [4, 8]: < 50 nM; EC50 [5, 9]: < 50 nM
19 | CN[C@H]1CC[C@@H](N(Cc2cc(-c3ccc([S+](C)[O-])cc3)ccc2OC)C(=O)c2sc3c(F)ccc(F)c3c2Cl)CC1 (some centres unmarked) [Compound 377, 3-Chloro-4,7-difluoro-benzo[b]thiophene-2-carboxylic acid (4′-methanesulfinyl-4-methoxy-biphenyl-3-ylmethyl)-(4-methylamino-cyclohexyl)-amide trifluoroacetate] | – | – | EC50 [4, 8]: < 50 nM; EC50 [5, 9]: < 50 nM
20 | COc1ccc(-c2cc[n+](C)cc2)cc1CN(C(=O)c1sc2c(F)ccc(F)c2c1Cl)[C@H]1CC[C@@H](N)CC1 [Compound 418] | – | – | EC50 ([4]; S12 mouse embryonic mesenchymal cells, Table 3, read-out: S12 Avg. EC50): 1000 to 2500 nM; EC50 ([5]; Daoy human cells, gli-luciferase reporter, Table 3, read-out: Daoy Avg. EC50): < 50 nM
